In one data set the target is Histone deacetylase 3 (Homo sapiens, UniProt O15379).
Data set [1] deals with T1, Protein deacetylase HDAC6 (Homo sapiens, UniProt Q9UBN7).
T1 sequence (Q9UBN7 whole entry): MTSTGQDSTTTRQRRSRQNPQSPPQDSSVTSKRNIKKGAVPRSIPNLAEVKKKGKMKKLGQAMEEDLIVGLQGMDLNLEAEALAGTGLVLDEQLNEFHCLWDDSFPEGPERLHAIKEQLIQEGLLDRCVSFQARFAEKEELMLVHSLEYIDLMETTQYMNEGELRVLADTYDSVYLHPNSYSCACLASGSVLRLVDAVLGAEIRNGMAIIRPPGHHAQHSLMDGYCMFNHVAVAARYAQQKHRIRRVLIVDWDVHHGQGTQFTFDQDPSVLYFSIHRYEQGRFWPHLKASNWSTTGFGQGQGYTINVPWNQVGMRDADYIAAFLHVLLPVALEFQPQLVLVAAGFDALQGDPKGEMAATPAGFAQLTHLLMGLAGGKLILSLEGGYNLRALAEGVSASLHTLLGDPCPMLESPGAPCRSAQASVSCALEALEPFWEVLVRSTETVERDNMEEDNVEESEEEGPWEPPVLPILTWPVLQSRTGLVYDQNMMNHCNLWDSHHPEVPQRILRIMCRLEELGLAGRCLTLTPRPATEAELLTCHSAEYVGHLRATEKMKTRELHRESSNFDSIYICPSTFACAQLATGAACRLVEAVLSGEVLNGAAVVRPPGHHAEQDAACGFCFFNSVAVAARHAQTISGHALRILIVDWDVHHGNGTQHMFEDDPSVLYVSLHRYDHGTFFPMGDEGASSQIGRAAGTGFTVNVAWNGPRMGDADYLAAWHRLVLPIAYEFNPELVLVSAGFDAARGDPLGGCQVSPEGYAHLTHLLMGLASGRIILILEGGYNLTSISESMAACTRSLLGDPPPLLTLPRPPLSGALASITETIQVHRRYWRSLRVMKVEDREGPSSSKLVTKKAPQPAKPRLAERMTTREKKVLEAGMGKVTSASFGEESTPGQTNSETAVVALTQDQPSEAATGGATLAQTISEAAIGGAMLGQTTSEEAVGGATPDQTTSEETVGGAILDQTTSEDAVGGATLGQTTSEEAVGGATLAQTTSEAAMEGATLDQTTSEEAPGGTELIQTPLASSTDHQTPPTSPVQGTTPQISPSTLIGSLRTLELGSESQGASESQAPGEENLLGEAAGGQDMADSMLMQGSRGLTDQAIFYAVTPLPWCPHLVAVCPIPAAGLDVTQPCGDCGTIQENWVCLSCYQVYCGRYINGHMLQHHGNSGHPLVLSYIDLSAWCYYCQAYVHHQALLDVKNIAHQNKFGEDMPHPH
In words: Inhibition of purified recombinant human HDAC6 assessed as inhibition constant using residues 379-382 (RHKK(Ac)AMC) fluorogenic substrate p53 fluorogenic peptide as substrate measured after 90 mins by fluorescence assay.

A further data set deals with MV4-11. In words: Antiproliferative activity against human MV4-11 cells assessed as cell viability by measuring amount of ATP after 72 hrs incubation by CellTiteer-Glo Cell viability assay. Particulars: MV4-11, 72 h.
For a further data set, the target named is T2, Histone deacetylase 8 (Homo sapiens, UniProt Q9BY41).
T2 sequence (Q9BY41 whole entry): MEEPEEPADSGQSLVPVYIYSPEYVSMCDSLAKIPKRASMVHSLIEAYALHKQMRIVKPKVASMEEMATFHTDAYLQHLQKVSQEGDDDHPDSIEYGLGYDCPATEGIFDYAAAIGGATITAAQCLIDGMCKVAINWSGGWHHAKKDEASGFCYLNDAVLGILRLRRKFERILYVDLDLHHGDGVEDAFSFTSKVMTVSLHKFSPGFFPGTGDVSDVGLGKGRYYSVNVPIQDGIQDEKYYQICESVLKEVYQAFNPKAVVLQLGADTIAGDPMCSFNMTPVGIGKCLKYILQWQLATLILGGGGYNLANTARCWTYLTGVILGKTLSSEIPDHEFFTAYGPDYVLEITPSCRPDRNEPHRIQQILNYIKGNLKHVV
In words: Inhibition of purified recombinant human HDAC8 assessed as inhibition constant using residues 379-382 (RHKK(Ac)AMC) fluorogenic substrate p53 fluorogenic peptide as substrate measured after 90 mins by fluorescence assay.

Data set [2] can be described thus: in vitro. Particulars: human, plasma diluted in PBS (1:2 v/v).
Description: Stability in human plasma in PBS (1:2 v/v) assessed as intact compound at 37 degC measured after 24 hrs
A short description of data set [3]: in vitro. Particulars: human, plasma diluted in PBS (1:2 v/v). The source holds these as a separate data set.
Description: Stability in human plasma in PBS (1:2 v/v) assessed as intact compound at 37 degC measured after 72 hrs
In data set [4] the target is T3, Protein deacetylase HDAC6 (Homo sapiens) (UniProt Q9UBN7).
T3 sequence (whole entry): T1 sequence (Q9UBN7 whole entry)
To be noted: MV4-11, dose 5.0 nM, time 24.0 hrs.

Data set [5] has as its target T3, Protein deacetylase HDAC6 (Homo sapiens). Particulars: MV4-11, dose 50.0 nM, time 24.0 hrs.
For data set [6] the target is unchanged. To be noted: MV4-11, dose 500.0 nM, time 24.0 hrs.
The target of data set [7] is T4, Polyamine deacetylase HDAC10 (Homo sapiens, UniProt Q969S8).
T4 sequence (Q969S8 whole entry): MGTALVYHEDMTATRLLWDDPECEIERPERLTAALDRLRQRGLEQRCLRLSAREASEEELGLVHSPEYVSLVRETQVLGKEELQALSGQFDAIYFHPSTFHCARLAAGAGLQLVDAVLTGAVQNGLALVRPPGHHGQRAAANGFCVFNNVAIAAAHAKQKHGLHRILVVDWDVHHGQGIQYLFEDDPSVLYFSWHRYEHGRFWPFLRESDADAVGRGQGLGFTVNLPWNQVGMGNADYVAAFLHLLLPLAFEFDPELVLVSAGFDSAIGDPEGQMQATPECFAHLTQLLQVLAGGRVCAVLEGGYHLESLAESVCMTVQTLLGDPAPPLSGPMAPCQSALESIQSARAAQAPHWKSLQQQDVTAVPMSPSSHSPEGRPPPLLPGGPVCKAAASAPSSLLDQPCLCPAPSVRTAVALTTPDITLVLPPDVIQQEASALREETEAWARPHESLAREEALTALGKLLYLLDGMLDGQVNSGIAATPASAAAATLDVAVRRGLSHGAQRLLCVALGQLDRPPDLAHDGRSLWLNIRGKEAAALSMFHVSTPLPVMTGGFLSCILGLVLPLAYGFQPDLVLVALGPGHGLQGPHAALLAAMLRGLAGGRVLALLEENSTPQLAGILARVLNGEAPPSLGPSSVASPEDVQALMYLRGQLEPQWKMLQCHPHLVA
In words: Inhibition of purified recombinant human HDAC10 assessed as inhibition constant using residues 379-382 (RHKK(Ac)AMC) fluorogenic substrate p53 fluorogenic peptide as substrate measured after 90 mins by fluorescence assay.

Structures are written as SMILES. Active and inactive are the calls of the source. The calls are words filed in the database; no cut-off is given here.

The text below walks through data of ChEMBL document CHEMBL5608209, “Biological and structural investigation of tetrahydro-β-carboline-based selective HDAC6 inhibitors with improved stability” (Eur J Med Chem, 2024).

Sequence of Histone deacetylase 3 (O15379 whole entry): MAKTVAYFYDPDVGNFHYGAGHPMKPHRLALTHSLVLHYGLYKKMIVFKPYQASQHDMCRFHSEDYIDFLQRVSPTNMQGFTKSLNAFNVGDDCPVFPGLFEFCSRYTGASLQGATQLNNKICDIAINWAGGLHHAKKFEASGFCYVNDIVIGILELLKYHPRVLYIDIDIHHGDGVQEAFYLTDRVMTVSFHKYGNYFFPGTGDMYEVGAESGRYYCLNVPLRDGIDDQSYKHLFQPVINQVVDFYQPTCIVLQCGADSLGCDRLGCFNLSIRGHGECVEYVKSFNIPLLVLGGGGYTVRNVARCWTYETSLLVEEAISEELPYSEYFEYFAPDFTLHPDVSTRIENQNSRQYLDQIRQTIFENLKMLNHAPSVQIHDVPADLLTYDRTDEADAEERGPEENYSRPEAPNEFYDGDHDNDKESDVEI
Description for Histone deacetylase 3: Inhibition of purified recombinant human HDAC3 assessed as inhibition constant using fluorogenic substrate ZMAL (Z-Lys(Ac)-AMC as substrate measured after 90 mins by fluorescence microplate reader

As a reminder, the Ki is the dissociation constant of the complex between target and ligand, obtained from inhibition or displacement. Turning to `CN1C(=O)N2Cc3c(c4cc(O)ccc4n3Cc3ccc(C(=O)NO)cc3)C(c3cccs3)(C2)C1=O` (racemic), the Ki on Histone deacetylase 3 was 118 nM; in data set [1] it was 0.31 nM.

A word on the EC50: it is the concentration that produces a half-maximal response. In the case of `O=C(CCCCCCNC(=O)c1cnc(N(c2ccccc2)c2ccccc2)nc1)NO` [RICOLINOSTAT], the half-maximal effective concentration (EC50) with MV4-11 stood at 710 nM.

Take `CN1C(=O)N2Cc3c(c4cc(OCCN5CCOCC5)ccc4n3Cc3ccc(C(=O)NO)cc3)C(C3CCCCC3)(C2)C1=O` (racemic): the results for the Ki (on Histone deacetylase 3; in data set [1]; at Histone deacetylase 8) were 675 nM, 1.25 nM and 1090 nM, respectively.

As usually defined, the share remaining is what is left of the initial amount, in per cent. In the case of `CN1C(=O)N2Cc3c(c4cc(OCCN5CCOCC5)ccc4n3Cc3ccc(C(=O)O)cc3)[C@](C)(C2)C1=O`, the amount remaining at 24 h in “in vitro [2]” came out at 91.4%. For the same compound, the amount remaining at 72 h in the data set “in vitro [3]” turned out to be 56.3%.

As for `CN1C(=O)C2CN(Cc3c2c2ccccc2n3Cc2ccc(C(=O)NO)cc2)C1=O` (stereo not given), the inhibition entry in data set [4], in [5] and in data set [6] was “inactive” each time.

Regarding `CC(/C=C/C(=O)NO)=C\[C@@H](C)C(=O)c1ccc(N(C)C)cc1` [TRICHOSTATIN], in the data set with MV4-11, the concentration for a half-maximal effect (EC50) amounted to 15300 nM.

Take `CN1C(=O)N2Cc3c(c4cc(OCCN5CCOCC5)ccc4n3Cc3ccc(C(=O)NO)cc3)C(c3ccco3)(C2)C1=O` (racemic): the Ki on Histone deacetylase 3 turned out to be 384 nM; in data set [1] it was 0.44 nM.

As to `Cn1cc(CNCC2CCN(c3ncc(C(=O)NO)cn3)CC2)c2ccccc21` [QUISINOSTAT], the Ki in data set [7] is 1.49 nM.
